Assay results published in patent US10526581B2, “Modulation of cardiac stem-progenitor cell differentiation, assays and uses thereof” (priority 2013, dated 2020).
Entries after “also recorded” stand apart in the source; their conditions may differ.

What was measured:
rats after ISO damage = conditions: rat, in vivo
c-kit^pos eCSCs = assay: cardiomyocyte differentiation of c-kit^pos eCSCs in differentiation medium (cTnI^pos cells, qRT-PCR); type: cell-based, rat; conditions: for number of myocyte differentiating (cTnI^pos) cells / transcription of myogenic lineage markers: differentiation medium (LIF withdrawal); for transcription of myogenic lineage markers: qRT-PCR; for differentiation of eCSCs into the cardiomyocyte lineage (myocyte specification): differentiation medium
Method: FIGS. 4(A-E). […] Nuclei were identified by DAPI in blue. Bar=50 μm. […] Data are Mean±SD of n=6/condition. […]
RNA was extracted using Qiagen RNeasy columns and was reverse transcribed using first strand cDNA synthesis with random or oligo-dT primers (Applied Biosystems). Residual amounts of DNA were removed by on-column DNase treatment using the RNase-Free DNase Set (Qiagen) during the RNeasy procedure. Quantitative RT-PCR was performed using SYBR Green (BioRad) on a MyIQ thermocycler (BioRad). The PCR-reaction included 2 μl of template cDNA, and 300 nM forward and reverse primers. PCR efficiency was evaluated by using a standard curve of five serial dilution points. Data were analysed using BioRad IQ software and mRNA was normalized to the housekeeping gene, GAPDH. All reactions were carried out in triplicate.

c-kit^pos CD45^neg eCSCs [1] = assay: BrdU incorporation proliferation assay of c-kit^pos eCSCs with cardiopoietic growth factors and Wnt or TGF-β modulators; type: cell-based, rat; conditions: in vitro
Method: (§1) c-kit^posCD45^neg eCSCs express functional receptors for these cardiopoetic factors (cGFs) (FIG. 4). In particular, both TGF-β1 and Wnt receptors are activated and signal to their known downstream effectors in eCSCs isolated from ISO injured hearts (FIG. 4). We thus directly tested in vitro the growth response of freshly isolated c-kit^pos CD45^neg eCSCs grown in limited serum (1% ESQ-FBS) to individual cGFs. Dose-response curves were performed to determine the optimal concentration for each cGF (FIG. 13A-H). […] These effects were confirmed by qRT-PCR of cardiomyocyte-specific mRNAs (FIG. 5).
(§2) Wnt/β-catenin and TGF-β/SMADs signaling play critical roles in the regulation of embryonic as well as different tissue-specific stem cell fate (21-23). In particular, these two signaling pathways have distinct functions in mammalian cardiogenesis (24-27). Thus, to extend our findings we have tested through gain and loss of function experiments the effects of Wnt/β-catenin and TGF-β/SMADs signaling pathways on c-kit^pos eCSC fate in vitro. […] To disrupt Wnt/ρ-catenin, c-kit^pos eCSCs were either treated with Dickkopf-1 (Dkk-1), an inhibitor of canonical Wnts or transfected with a specific short hairpin RNA for β-catenin (β-cat^shRNA). […] The positive and negative modulators of Wnt/β-catenin physiologically acted on their known molecular targets by respectively stabilizing or degrading β-catenin and its LEF/TCF-dependent transcriptional activity (FIG. 6). […] On the other hand, Dkk-1 increased c-kit^pos CSC myocyte specification (FIG. 5), even though its effect was not sufficient to produce a fully differentiated phenotype as indicated by the lack of cells which expressed abundant and organised sarcomeric structures (FIG. 5).

[2] = system: CSCs^GFP/TK and adult rat ventricular myocytes (ARVM); assay: GCV in vitro on CSCs^GFP/TK growth and on co-cultured adult rat ventricular myocytes; type: cell-based
Method: c-kit^pos CSCs were grown in CSC growth medium consisting of Dulbecco's MEM/Ham's F12 (DMEM/F12; […] Millipore), bFGF (10 ng/ml; Peprotech), EGF (20 ng/ml; Peprotech), insulin-transferrin-selenite (ITS; […] Ganciclovir (GCV, 10^−5M) was added and cells were cultured for 3 and 7 days. Mouse c-kit^pos CSCs or c-kit^pos CSC-derived cardiospheres were cultured on glass chamber slides (BD Falcon), fixed with 4% PFA for 20 min, and then stained. […] For cardiomyocyte/CSC^GFP/TK co-culture assays, 3× wells/condition were fixed and stained to assess the number of apoptotic (TdT and caspase-3) cardiomyocytes (Kawaguchi et al., 2010). Cardiomyocytes were identified by co-staining for cTnI. The percentage of TdT-positive and caspase-3 positive cardiomyocytes was determined by counting 20 random fields at ×40 magnification for each well. Numbers were expressed as a percentage of TdT- or caspase-3 positive cardiomyocytes relative to the total number of cardiomyocytes counted. FITC or Texas Red-conjugated 2° Abs were used. Nuclei were stained with DAPI. Fluorescence was visualized and images acquired with confocal microscopy (Zeiss LSM 510 or 710).

[3] = system: rats with ISO+5-FU cardiomyopathy
hCSCs = assay: stimulation of hCSCs with inflammatory cytokines, immunogenicity molecules; type: cell-based, human
From the text: The human c-kit CSCs (hCSCs) from all the donors tested so far (n=8) expressed normal levels of the HLA class I and no detectable levels of HLA class II and the co-stimulatory molecules CD40, CD80 and CD 86 (see primary data example below)> they also fail to express CD 275 but express high levels of PD-L1 (CD274).

[4] = system: Nestin^pos progenitor cells from clonal-derived c-kit^pos eCSCs; assay: neurogenic differentiation of Nestin^pos cells from clonal c-kit^pos eCSCs; type: cell-based, rat; conditions: differentiation medium, 7 days
From the text: It has been previously shown that cardiac side population cells that express the neural progenitor marker, Nestin, can be induced to differentiate into the ectoderm layer, producing neurons and glial cells (15). We then purified for a population of Nestin^pos progenitor cells from clonal-derived c-kit^pos eCSCs. When placed into differentiation medium supplemented with Retinoic Acid or LIF for 7 days, we found up-regulation of GFAP, MATH2/NeuroD6, a neuron specific transcription factor (FIG. 3C), β-3 tubulin arrayed in filaments and bundles (FIG. 3C), neuron-specific enolase (FIG. 3C), acetylcholintransferase (FIG. 3C), doublecortin (DCX), and S-100β (FIG. 3C). Furthermore, after RA differentiation, cells had characteristics of neuronal dendrites, indicating a morphological change that resembled neurons (FIG. 3C).

c-kit^pos CD45^neg eCSCs [5] = assay: clonogenic assay of c-kit^pos eCSCs; type: cell-based, rat; conditions: in vitro
Method: as §1, §2

## O=c1[nH]cc(F)c(=O)[nH]1 [5-FU, 5-fluorouracil]
Rats after ISO damage
  toxic effects of the 5-FU regime: did not cause any cellular or functional cardiac or extra-cardiac toxic effects

## O=C1Nc2cc(Br)ccc2/C1=C1/Nc2ccccc2/C1=N\O [BIO, 6-bromoindirubin-3′-oxime]
c-kit^pos eCSCs
  number of myocyte differentiating (cTnI^pos) cells: significantly reduced
  transcription of myogenic lineage markers: significantly reduced
c-kit^pos CD45^neg eCSCs [1]
  c-kit^pos eCSC proliferation (growth, expansion): stimulate

## Nc1nc(O)c2ncn(COC(CO)CO)c2n1 [GCV, Ganciclovir]
[2]; GCV 10^−5 M, alone or co-cultured with CSC^GFP/TK
  adult rat ventricular myocyte (ARVM) apoptosis: does not cause any relevant effect
[2]; GCV 10^−5 M, in vitro
  growth of Lenti-GFP/TK-transfected CSCs (CSCs^GFP/TK): growth arrest
[2]; GCV at a concentration sufficient to kill the CSCs^GFP/TK
  survival of adult rat ventricular CMs cultured with CSCs^GFP/TK: does not affect survival
[3]; ISO+5-FU+CSCs^GFP/TK group
  effect of GCV treatment on recovered cellular and functional parameters: dramatic reversal of all the recovered cellular and functional parameters
[3]; rat, in vivo
  adverse effects of GCV treatment: did not cause any histological or functional adverse effects

## FGF-2: cardiopoietic growth factor
c-kit^pos CD45^neg eCSCs [1]
  c-kit^pos eCSC proliferation (growth, expansion): significantly increased

## HGF: cardiopoietic growth factor
c-kit^pos CD45^neg eCSCs [1]
  c-kit^pos eCSC proliferation (growth, expansion): significantly increased

## IFNγ: inflammatory cytokine
hCSCs
  expression of HLA class I and class II on hCSCs: significantly enhanced
  expression of the co-stimulatory molecules CD40, CD80 and CD 86 on hCSCs: does not induce

## IGF-1: cardiopoietic growth factor
c-kit^pos CD45^neg eCSCs [1]
  c-kit^pos eCSC proliferation (growth, expansion): significantly increased

## LIF: supplement of the neural differentiation medium
[4]
  expression of neural markers (GFAP, MATH2/NeuroD6, β-3 tubulin and others): up-regulation

## TGF-β1: cardiopoietic growth factor
c-kit^pos CD45^neg eCSCs [5]
  c-kit^pos eCSC clonogenicity: did not affect; also recorded: Neither BMP-2, BMP-4, TGF-β1 supplementation nor Smad2 knock-down affected
c-kit^pos eCSCs
  differentiation of eCSCs into the cardiomyocyte lineage (myocyte specification): promoted differentiation
  number of myocyte differentiating (cTnI^pos) cells: significantly induced
  transcription of myogenic lineage markers: significantly induced
c-kit^pos CD45^neg eCSCs [1]
  c-kit^pos eCSC proliferation (growth, expansion): did not affect; also recorded: Neither BMP-2, BMP-4, TGF-β1 supplementation nor Smad2 knock-down affected

B1: Wnt3a: soluble Wnt-3a, canonical Wnt growth factor (protein, UniProt P56704 19-352, looked up)
Protein Wnt-3a: SYPIWWSLAVGPQYSSLGSQPILCASIPGLVPKQLRFCRNYVEIMPSVAEGIKIGIQECQHQFRGRRWNCTTVHDSLAIFGPVLDKATRESAFVHAIASAGVAFAVTRSCAEGTAAICGCSSRHQGSPGKGWKWGGCSEDIEFGGMVSREFADARENRPDARSAMNRHNNEAGRQAIASHMHLKCKCHGLSGSCEVKTCWWSQPDFRAIGDFLKDKYDSASEMVVEKHRESRGWVETLRPRYTYFKVPTERDLVYYEASPNFCEPNPETGSFGTRDRTCNVSSHGIDGCDLLCCGRGHNARAERRREKCRCVFHWCCYVSCQECTRVYDVHTCK
c-kit^pos CD45^neg eCSCs [5]
  c-kit^pos eCSC clonogenicity: most effective
c-kit^pos CD45^neg eCSCs [5]; listed as Wnt-3a
  c-kit^pos eCSC clonogenicity: stimulate
c-kit^pos eCSCs
  number of myocyte differentiating (cTnI^pos) cells: significantly reduced
  transcription of myogenic lineage markers: significantly reduced
c-kit^pos CD45^neg eCSCs [1]
  c-kit^pos eCSC proliferation (growth, expansion): significantly increased
c-kit^pos CD45^neg eCSCs [1]; listed as Wnt-3a
  c-kit^pos eCSC proliferation (growth, expansion): stimulate

B2: Dkk-1: Dickkopf-1, an inhibitor of canonical Wnts (protein, UniProt O94907 32-266, looked up)
Dickkopf-related protein 1: TLNSVLNSNAIKNLPPPLGGAAGHPGSAVSAAPGILYPGGNKYQTIDNYQPYPCAEDEECGTDEYCASPTRGGDAGVQICLACRKRRKRCMRHAMCCPGNYCKNGICVSSDQNHFRGEIEETITESFGNDHSTLDGYSRRTTLSSKMYHTKGQEGSVCLRSSDCASGLCCARHFWSKICKPVLKEGQVCTKHRRKGSHGLEIFQRCYCGEGLSCRIQKDHHQASNSSRLHTCQRH
c-kit^pos CD45^neg eCSCs [5]
  c-kit^pos eCSC clonogenicity: significant decrease
c-kit^pos eCSCs
  differentiation of eCSCs into the cardiomyocyte lineage (myocyte specification): increased
c-kit^pos CD45^neg eCSCs [1]
  c-kit^pos eCSC proliferation (growth, expansion): significant decrease

B3: BMP-4: cardiopoietic growth factor (protein, UniProt P12644 293-408, looked up)
Bone morphogenetic protein 4: SPKHHSQRARKKNKNCRRHSLYVDFSDVGWNDWIVAPPGYQAFYCHGDCPFPLADHLNSTNHAIVQTLVNSVNSSIPKACCVPTELSAISMLYLDEYDKVVLKNYQEMVVEGCGCR
c-kit^pos CD45^neg eCSCs [5]
  c-kit^pos eCSC clonogenicity: did not affect; also recorded: Neither BMP-2, BMP-4, TGF-β1 supplementation nor Smad2 knock-down affected
c-kit^pos eCSCs
  differentiation of eCSCs into the cardiomyocyte lineage (myocyte specification): promoted differentiation
  number of myocyte differentiating (cTnI^pos) cells: significantly induced
  transcription of myogenic lineage markers: significantly induced
c-kit^pos CD45^neg eCSCs [1]
  c-kit^pos eCSC proliferation (growth, expansion): did not affect; also recorded: Neither BMP-2, BMP-4, TGF-β1 supplementation nor Smad2 knock-down affected

B4: BMP-10: cardiopoietic growth factor (protein, UniProt O95393 317-424, looked up)
Bone morphogenetic protein 10: NAKGNYCKRTPLYIDFKEIGWDSWIIAPPGYEAYECRGVCNYPLAEHLTPTKHAIIQALVHLKNSQKASKACCVPTKLEPISILYLDKGVVTYKFKYEGMAVSECGCR
c-kit^pos eCSCs
  number of myocyte differentiating (cTnI^pos) cells: significantly induced
  transcription of myogenic lineage markers: significantly induced

B5: Wnt5a: non-canonical Wnt, cardiopoietic growth factor (protein, UniProt P41221 62-380, looked up)
Protein Wnt-5a: IIGAQPLCSQLAGLSQGQKKLCHLYQDHMQYIGEGAKTGIKECQYQFRHRRWNCSTVDNTSVFGRVMQIGSRETAFTYAVSAAGVVNAMSRACREGELSTCGCSRAARPKDLPRDWLWGGCGDNIDYGYRFAKEFVDARERERIHAKGSYESARILMNLHNNEAGRRTVYNLADVACKCHGVSGSCSLKTCWLQLADFRKVGDALKEKYDSAAAMRLNSRGKLVQVNSRFNSPTTQDLVYIDPSPDYCVRNESTGSLGTQGRLCNKTSEGMDGCELMCCGRGYDQFKTVQTERCHCKFHWCCYVKCKKCTEIVDQFVCK
c-kit^pos CD45^neg eCSCs [5]
  c-kit^pos eCSC clonogenicity: did not affect
c-kit^pos eCSCs
  differentiation of eCSCs into the cardiomyocyte lineage (myocyte specification): promoted differentiation
c-kit^pos CD45^neg eCSCs [1]
  c-kit^pos eCSC proliferation (growth, expansion): did not affect
